Consider 3 compounds from patent US12533411B2, “Compositions comprising anti-CD38 antibodies and carfilzomib” (Sanofi-Aventis U.S. LLC, priority 2013, dated 2026).

“Also recorded” adds a separate entry of the source.

The subject of experiment [1] is tumor cells. As to conditions: reported in the literature; cited from earlier work.
For another experiment, the system named is NCI-H929 xenografts. Nature of the experiment: NCI-H929 hind-flank xenograft tumor growth (Example 3, FIGS. 12-13). Format: in vivo, Balb/c Scid mice. The conditions noted are these: for tumor growth inhibition, single agent: single-agent administration, NCI-H929 hind-flank model (FIG. 12). The protocol: Carfilzomib (PR-171) was obtained from Chemie Tek (CT-CARP 98). Carfilzomib was formulated in an aqueous solution of 10% (w/v) sulfobutylether-h-cyclodextrin (Cydex) and 10 mmol/L sodium citrate (pH 3.5), 2 mg/ml stock prepared and frozen at −80° C., diluted daily with vehicle before injection. Carfilzomib was administered weekly qd×2×3 wk (iv).
Test Animals: 5-6 week old female Balb/c Scid mice were obtained from Jackson Lab. Mice were housed for 7-10 days prior to implantation of multiple myeloma (MM) cell lines. Mice were housed in a dedicated room in the UCSF Mt. Zion Animal Barrier Facility.
(§1) Xenograft Model: At the time of implantation, mice were shaved on the right flank and shoulder. MM cells were suspended in serum free RPMI 1640 media diluted 1:1 with Matrigel (BD) at a concentration of 1×10^8 cells per ml were injected sc into the right flank in 100 ul volume (1×10^7 cells) using a 1 ml syringe and 25 g needle. Mice were monitored twice weekly for the appearance of tumors and once tumors were visible, measurements were collected twice weekly for body weight and tumor volume. Electronic balance and calipers were used and data was collected directly into a study management program (Study Director). When the mean tumor volume reached approximately 150-200 mm^3, mice were distributed into treatment groups of 8-10 mice per group and dosing was initiated.

The subject of experiment [2] is RPMI-8226 xenograft models. Put plainly: RPMI-8226 subcutaneous multiple myeloma xenograft mouse model (Example 1). It counts as in vivo, Balb/c Scid mice. As to conditions: Day 41, carfilzomib 3 mg/kg qd×2 every wk×3 wk, hu38SB19 3 mg/kg BIW×2 wk.
Excerpt: The subcutaneous multiple myeloma (MM) xenograft mouse models were established using NCI-H929 or RPMI-8226 cell lines. Specifically, 5-6 week old female Balb/c Scid mice were obtained from Jackson Lab. Mice were housed for 7-10 days prior to implantation. Mice were housed in a dedicated room in the UCSF Mt Zion Animal Barrier Facility. NCI-H929 and RPMI-8226 cells were obtained from the German Collection of Microorganisms and Cell Cultures, DSMZ, (Deutsche Sammlung von Mikroorganismen and Zellkulturen), and grown in sterile suspension culture in T225 flasks as follows: NCI-H929: RPMI1640+20% FBS+4 mM L−glutamine+1 mM sodium pyruvate+50 μM mercaptoethanol. RPMI-8226: RPMI1640+10% FBS+4 mM L-glutamine.
as §1, with “At” for “Xenograft Model: At”, “shoulder region and anesthetized with ip avertin.” for “shoulder.”, “cells” for “cells were”, “μL” for “ul”, “When the mean tumor volume reached approximately 150-200 mm^3, mice were distributed into treatment groups of 8-10 mice per group and dosing was initiated.” left out

Experiment [3] concerns NCI-H929 multiple myeloma model. Nature of the experiment: NCI-H929 subcutaneous multiple myeloma xenograft mouse model (Example 1). It counts as in vivo, Balb/c Scid mice. The conditions noted are these: carfilzomib 2 mg/kg 2×/wk × 3 wk IV; for Activity: D69, hu38SB19 0.5 mg/kg 2×/wk × 2 wk IV. An excerpt:
The subcutaneous multiple myeloma (MM) xenograft mouse models were established using NCI-H929 or RPMI-8226 cell lines. Specifically, 5-6 week old female Balb/c Scid mice were obtained from Jackson Lab. Mice were housed for 7-10 days prior to implantation. Mice were housed in a dedicated room in the UCSF Mt Zion Animal Barrier Facility. NCI-H929 and RPMI-8226 cells were obtained from the German Collection of Microorganisms and Cell Cultures, DSMZ, (Deutsche Sammlung von Mikroorganismen and Zellkulturen), and grown in sterile suspension culture in T225 flasks as follows: NCI-H929: RPMI1640+20% FBS+4 mM L−glutamine+1 mM sodium pyruvate+50 μM mercaptoethanol. RPMI-8226: RPMI1640+10% FBS+4 mM L-glutamine. At the time of implantation, mice were shaved on the right flank and shoulder region and anesthetized with ip avertin. MM cells suspended in serum free RPMI 1640 media diluted 1:1 with Matrigel (BD) at a concentration of 1×10^8 cells per ml were injected sc into the right flank in 100 μL volume (1×10^7 cells) using a 1 ml syringe and 25 g needle. Mice were monitored twice weekly for the appearance of tumors and once tumors were visible, measurements were collected twice weekly for body weight and tumor volume. Electronic balance and calipers were used and data was collected directly into a study management program (Study Director). When the mean tumor volume reached about 150-200 mm^3, the mice were distributed into treatment groups of 8-10 mice per groups and dosing was begun. […] Dose levels for use in combination studies are as follows: Data were collected using electronic balance and calipers using a study management application called StudyLog (Study Director). […] Antitumor activity was determined according to NCI standards based on the ratio of the median tumor volume change of the treated/median tumor volume change of the control×100 (% ΔT/ΔC). Low numerical values for ΔT/ΔC describe stronger anti-tumor activity. Anti-tumor activity is defined as T/C≤40% at minimum. ΔT/ΔC<10% is considered high anti-tumor activity.

Experiment [4] has as its system tumor cells. Nature of the experiment: Direct pro-apoptotic activity on tumor cells without cross-linking. The conditions noted are these: preclinical studies. Format: cell-based.

For the compound “Daratumumab: CD38 antibody reported to induce apoptosis only after cross-linking with a secondary antibody”, the induction of apoptosis entry with tumor cells [1] was “able to induce apoptosis only after cross-linking with a secondary antibody”.
As to `CC(C)C[C@H](NC(=O)[C@H](CCc1ccccc1)NC(=O)CN1CCOCC1)C(=O)N[C@@H](Cc1ccccc1)C(=O)N[C@@H](CC(C)C)C(=O)[C@@]1(C)CO1` [Carfilzomib, (S)-4-Methyl-N-((S)-1-(((S)-4-methyl-1-((R)-2-methyloxiran-2-yl)-1-oxopentan-2-yl)amino)-1-oxo-3-phenylpropan-2-yl)-2-((S)-2-(2-morpholinoacetamido)-4-phenylbutanamido)pentanamide], in the experiment with NCI-H929 xenografts, the “tumor growth inhibition, single agent” value is given as “not robustly sensitive to single-agent therapy”. The complete regressions in experiment [2] is on record as 0/10. Also, the Activity entry in experiment [3] was “Inactive”; in experiment [3] (listed as carfilzomib), “inactive”. Besides, the “% ΔT/ΔC (D69)” value in experiment [3] (hu38SB19 0.5 mg/kg 2×/wk × 2 wk IV) is recorded as 68%.
In the case of “hu38SB19: humanized anti-CD38 antibody; VH SEQ ID NO: 66, VL SEQ ID NO: 62 or 64; humanized version of 38SB19”, the “elimination of palpable tumors” value with NCI-H929 xenografts (hu38SB19 as sole active ingredient, four cumulative doses twice weekly at 3 mg/kg (FIG. 12)) is “eliminate palpable tumors in all mice”. Moreover, the “tumor growth inhibition, single agent” value in the experiment with NCI-H929 xenografts is on record as “dose-dependent inhibition of tumor growth; also recorded: dose-dependent anti-tumor effects”. Further, the complete regressions in experiment [2] is 2/10. In experiment [3], the outcome was Inactive. The direct pro-apoptotic activity result in the experiment with tumor cells [4] is listed as “potent direct pro-apoptotic activity”.
